Experiment [1] concerns the target T1, TRPC6 (Homo sapiens, UniProt Q9Y210).
T1 construct: expressed in transfected cells
T1 sequence (Q9Y210 1-931): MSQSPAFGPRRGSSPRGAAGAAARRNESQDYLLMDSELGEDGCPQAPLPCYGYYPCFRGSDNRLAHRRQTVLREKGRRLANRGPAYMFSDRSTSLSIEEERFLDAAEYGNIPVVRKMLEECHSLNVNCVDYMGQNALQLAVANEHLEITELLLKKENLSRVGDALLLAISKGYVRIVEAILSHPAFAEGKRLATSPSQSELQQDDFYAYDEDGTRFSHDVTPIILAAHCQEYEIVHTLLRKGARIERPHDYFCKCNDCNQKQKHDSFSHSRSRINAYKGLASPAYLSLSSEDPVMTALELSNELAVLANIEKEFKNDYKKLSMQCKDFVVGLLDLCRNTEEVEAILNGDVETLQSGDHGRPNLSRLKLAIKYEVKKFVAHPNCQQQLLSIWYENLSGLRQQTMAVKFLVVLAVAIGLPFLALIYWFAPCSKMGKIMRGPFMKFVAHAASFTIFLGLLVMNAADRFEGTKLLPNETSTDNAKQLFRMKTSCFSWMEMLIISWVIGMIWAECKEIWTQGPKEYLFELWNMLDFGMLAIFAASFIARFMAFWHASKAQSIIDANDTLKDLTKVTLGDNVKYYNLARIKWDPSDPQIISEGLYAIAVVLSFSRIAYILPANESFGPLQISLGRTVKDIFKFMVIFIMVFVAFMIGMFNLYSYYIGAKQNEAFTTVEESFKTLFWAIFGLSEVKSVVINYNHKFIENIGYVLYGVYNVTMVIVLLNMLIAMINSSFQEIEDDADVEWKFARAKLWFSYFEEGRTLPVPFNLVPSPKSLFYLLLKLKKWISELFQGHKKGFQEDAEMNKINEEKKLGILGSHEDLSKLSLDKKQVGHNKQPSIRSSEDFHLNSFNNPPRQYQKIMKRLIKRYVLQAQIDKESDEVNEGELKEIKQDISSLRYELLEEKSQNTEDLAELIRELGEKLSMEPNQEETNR
Put plainly: FLIPR calcium entry in TRPC6-expressing cells stimulated by hyperforin. Particulars: read-out: IC50, hyperforin-induced TRPC6-mediated calcium entry (Fig. 3). It is filed as cell-based. The procedure: (§1) Using this approach, we tested several other structurally related compounds to get a first view on the structure-function relationships of TRPC6.
A) The chemical structures of the tested compound is shown. […] Calcium entry was measured using FLIPR^Tetra and data analysed as described in Jörs et al.. The data were calculated from one experiment of at least three experiments performed in quadruplicates per concentration and TRP channel.
(§2) Calcium entry was measured using FLIPR^Tetra and data analysed as described in Jörs et al.. The data were calculated from one experiment of at least three experiments performed in quadruplicates per concentration and TRP channel.

Experiment [2] has as its system TRPC3. Set-up: method as in PMID 12700192. The conditions noted are these: 100 µM; human myometrial cells; cited from earlier work.
Experiment [3] deals with T1, TRPC6. Set-up: method as in earlier work. Particulars: 100 µM SKF-96365; ref 12 (Boulay et al.); cited from earlier work.
Experiment [4] concerns the target receptor-mediated calcium entry. Set-up: method as in PMID 2173565. The conditions noted are these: platelets, neutrophils and endothelial cells; read-out: IC50, block of ADP-induced calcium entry; cited from earlier work.
In experiment [5] the target is T2, Drosophila TRPγ (Drosophila melanogaster, UniProt Q9VJJ7).
T2 construct: expressed in transfected cells
T2 sequence (Q9VJJ7 1-1128): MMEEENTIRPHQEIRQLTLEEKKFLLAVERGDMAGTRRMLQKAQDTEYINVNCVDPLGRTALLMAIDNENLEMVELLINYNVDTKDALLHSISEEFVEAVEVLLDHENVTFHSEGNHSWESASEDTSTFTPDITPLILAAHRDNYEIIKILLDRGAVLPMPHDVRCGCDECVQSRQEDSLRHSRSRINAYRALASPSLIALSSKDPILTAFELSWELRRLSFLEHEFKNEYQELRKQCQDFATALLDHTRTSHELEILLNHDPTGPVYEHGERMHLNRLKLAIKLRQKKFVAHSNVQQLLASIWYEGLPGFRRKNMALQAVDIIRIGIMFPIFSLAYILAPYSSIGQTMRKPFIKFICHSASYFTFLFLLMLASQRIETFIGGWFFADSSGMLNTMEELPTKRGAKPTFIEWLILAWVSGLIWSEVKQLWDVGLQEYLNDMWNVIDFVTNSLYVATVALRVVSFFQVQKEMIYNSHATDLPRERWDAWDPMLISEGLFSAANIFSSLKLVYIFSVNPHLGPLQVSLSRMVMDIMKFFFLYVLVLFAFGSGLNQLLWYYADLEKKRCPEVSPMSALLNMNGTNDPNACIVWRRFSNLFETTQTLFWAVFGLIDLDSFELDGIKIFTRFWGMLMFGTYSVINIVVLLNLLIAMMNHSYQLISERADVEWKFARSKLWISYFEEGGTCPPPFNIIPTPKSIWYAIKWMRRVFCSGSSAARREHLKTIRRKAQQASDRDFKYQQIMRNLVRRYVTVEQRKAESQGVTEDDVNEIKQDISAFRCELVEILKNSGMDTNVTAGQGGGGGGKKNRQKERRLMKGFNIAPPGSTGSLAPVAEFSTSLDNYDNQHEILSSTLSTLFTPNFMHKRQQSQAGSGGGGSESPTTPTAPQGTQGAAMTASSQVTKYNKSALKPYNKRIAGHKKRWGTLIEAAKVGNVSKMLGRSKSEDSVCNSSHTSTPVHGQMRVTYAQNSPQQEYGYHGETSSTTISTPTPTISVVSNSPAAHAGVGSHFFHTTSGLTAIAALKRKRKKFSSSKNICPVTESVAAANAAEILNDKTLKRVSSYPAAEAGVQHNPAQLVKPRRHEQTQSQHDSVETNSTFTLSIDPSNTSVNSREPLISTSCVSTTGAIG
Put plainly: FLIPR calcium entry in TRPγ-expressing cells stimulated by eicosatetraynoic acid. It is filed as cell-based. The conditions noted are these: fluo-4-loaded cells, eicosatetraynoic acid (20 µM), FLIPR Tetra; read-out: IC50 to block Drosophila TRPγ. On the procedure: as §1, §2

Experiment [6] has as its target T3, TRPV4 (Homo sapiens, UniProt Q9HBA0).
T3 construct: expressed in transfected cells
Put plainly: FLIPR calcium entry in TRPV4-expressing cells stimulated by 4α-phorbol-didecanoate. The conditions noted are these: fluo-4-loaded cells, 4α-phorbol-didecanoate (5 µM), FLIPR Tetra; read-out: IC50 to block TRPV4. It is filed as cell-based. On the procedure:
as §1, §2

Experiment [7] addresses T4, TRPM3 (Homo sapiens, UniProt Q9HCF6).
T4 construct: expressed in transfected cells
Description: FLIPR calcium entry in TRPM3-expressing cells stimulated by pregnenolone sulphate. In kind it is cell-based. Particulars: fluo-4-loaded cells, pregnenolone sulphate (35 µM), FLIPR Tetra; read-out: IC50 to block TRPM3. On the procedure: as §1, §2

Experiment [8] relates to TRPC3. Set-up: method as in PMID 9368034, PMID 10970899. Particulars: read-out: half-maximal concentration necessary for TRPC3 inhibition; cited from earlier work.
The target of experiment [9] is T1, TRPC6. Set-up: method as in PMID 9368034, PMID 10970899. Particulars: read-out: concentration needed to block TRPC6; cited from earlier work.

Read-outs that look alike come from different tables or passages of the source.

Results on eight compounds are retold here after PMC3267170, “Pharmacological Modulation of Diacylglycerol-Sensitive TRPC3/6/7 Channels” (Current Pharmaceutical Biotechnology, 2011).

T4 sequence (Q9HCF6 whole entry, species assumed): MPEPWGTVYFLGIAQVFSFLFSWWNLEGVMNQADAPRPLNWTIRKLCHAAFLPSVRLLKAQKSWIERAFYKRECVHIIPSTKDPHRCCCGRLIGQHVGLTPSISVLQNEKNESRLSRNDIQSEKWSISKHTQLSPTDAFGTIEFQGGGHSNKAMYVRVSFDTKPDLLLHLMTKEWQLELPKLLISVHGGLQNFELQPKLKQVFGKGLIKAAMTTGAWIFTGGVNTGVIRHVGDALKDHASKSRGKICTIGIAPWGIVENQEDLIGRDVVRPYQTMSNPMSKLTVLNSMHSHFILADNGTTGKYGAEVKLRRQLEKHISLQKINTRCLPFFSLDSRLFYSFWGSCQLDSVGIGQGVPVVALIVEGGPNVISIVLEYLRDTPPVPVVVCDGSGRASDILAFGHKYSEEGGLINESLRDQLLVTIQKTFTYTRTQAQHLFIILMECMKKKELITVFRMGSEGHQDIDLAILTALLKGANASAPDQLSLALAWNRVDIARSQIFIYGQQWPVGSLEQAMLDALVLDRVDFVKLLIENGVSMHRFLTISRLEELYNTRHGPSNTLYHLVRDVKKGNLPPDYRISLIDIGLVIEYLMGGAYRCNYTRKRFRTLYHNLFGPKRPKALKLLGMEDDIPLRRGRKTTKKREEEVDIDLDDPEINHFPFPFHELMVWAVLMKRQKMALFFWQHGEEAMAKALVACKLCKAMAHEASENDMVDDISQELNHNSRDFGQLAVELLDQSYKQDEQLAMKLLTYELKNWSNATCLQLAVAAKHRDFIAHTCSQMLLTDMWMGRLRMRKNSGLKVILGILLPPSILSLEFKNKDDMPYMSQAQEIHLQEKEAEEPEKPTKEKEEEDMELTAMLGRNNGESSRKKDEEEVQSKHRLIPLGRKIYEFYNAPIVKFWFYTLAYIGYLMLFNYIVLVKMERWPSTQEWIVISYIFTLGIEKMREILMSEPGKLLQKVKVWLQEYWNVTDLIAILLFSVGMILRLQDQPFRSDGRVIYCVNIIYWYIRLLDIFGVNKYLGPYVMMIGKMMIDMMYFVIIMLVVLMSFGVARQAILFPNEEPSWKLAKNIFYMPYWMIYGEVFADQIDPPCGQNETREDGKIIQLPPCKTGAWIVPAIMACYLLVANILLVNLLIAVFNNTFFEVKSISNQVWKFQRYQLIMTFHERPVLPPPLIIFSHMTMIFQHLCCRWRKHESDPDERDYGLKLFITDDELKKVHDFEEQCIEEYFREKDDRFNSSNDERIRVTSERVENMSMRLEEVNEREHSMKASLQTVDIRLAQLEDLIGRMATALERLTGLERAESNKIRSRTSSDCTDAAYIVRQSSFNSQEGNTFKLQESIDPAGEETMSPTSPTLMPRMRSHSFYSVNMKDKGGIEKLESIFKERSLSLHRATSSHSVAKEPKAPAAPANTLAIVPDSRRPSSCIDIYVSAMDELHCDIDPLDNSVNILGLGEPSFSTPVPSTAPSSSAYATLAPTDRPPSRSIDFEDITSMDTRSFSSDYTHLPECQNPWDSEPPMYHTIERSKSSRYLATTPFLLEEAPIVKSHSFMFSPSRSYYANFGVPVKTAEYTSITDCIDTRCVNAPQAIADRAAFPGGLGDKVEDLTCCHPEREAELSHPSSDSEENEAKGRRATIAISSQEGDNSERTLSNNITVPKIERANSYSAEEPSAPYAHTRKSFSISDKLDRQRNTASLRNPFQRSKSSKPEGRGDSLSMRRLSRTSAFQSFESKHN
T3 sequence (Q9HBA0 whole entry, species assumed): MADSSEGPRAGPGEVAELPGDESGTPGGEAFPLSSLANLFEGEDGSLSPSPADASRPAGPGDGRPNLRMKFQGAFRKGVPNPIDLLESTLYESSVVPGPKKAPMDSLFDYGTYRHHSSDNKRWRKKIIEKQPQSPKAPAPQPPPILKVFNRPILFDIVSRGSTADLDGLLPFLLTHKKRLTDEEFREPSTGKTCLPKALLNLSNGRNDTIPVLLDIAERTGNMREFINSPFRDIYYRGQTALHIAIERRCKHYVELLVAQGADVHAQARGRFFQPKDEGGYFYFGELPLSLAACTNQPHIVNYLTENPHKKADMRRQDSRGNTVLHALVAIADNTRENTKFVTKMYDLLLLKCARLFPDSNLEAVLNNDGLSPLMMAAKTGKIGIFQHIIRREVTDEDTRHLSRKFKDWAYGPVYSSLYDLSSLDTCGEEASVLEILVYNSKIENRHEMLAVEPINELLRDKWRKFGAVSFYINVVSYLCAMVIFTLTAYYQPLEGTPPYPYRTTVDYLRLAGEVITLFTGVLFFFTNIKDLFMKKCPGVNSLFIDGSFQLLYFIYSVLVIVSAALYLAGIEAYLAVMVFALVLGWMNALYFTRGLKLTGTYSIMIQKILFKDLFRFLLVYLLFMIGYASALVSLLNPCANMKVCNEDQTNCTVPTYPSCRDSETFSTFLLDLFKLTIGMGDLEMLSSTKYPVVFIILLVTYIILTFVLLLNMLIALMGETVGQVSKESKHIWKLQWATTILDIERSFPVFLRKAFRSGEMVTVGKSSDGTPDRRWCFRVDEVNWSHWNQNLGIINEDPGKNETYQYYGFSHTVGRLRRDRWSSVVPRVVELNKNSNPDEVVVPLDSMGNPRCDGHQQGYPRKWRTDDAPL

For the compound `NCCCCCCCCNS(=O)(=O)c1cccc2c(I)cccc12` [J-8, (N-8-Aminooctyl)-5-iodo-1-naphthalenesulfonamide], the IC50 in experiment [1] was found to be 85 µM. Consider `O=S(=O)(c1cccc2c(Cl)cccc12)N1CCCNCC1` [ML-9, 1-(5-Chloronaphthalene-1-sulfonyl)-1H-hexahydro-1,4-diazepine], for which the IC50 in [1] came to 36 µM. Consider `COc1ccc(CCCOC(Cn2ccnc2)c2ccc(OC)cc2)cc1.Cl` (stereo not drawn) [SKF-96365, 1-{β[3-(4-methoxyphenyl)propoxy]-4-methoxyphenethyl}-1H-imidazole hydrochloride], for which, in experiment [2], the “block of endogenously expressed TRPC3” value was “effective in blocking”. Moreover, the “block of heterologously expressed TRPC6” value in [3] is given as “complete block”. Moreover, in experiment [4], the IC50 is approximately 10 µM. `NCCCCCCNS(=O)(=O)c1cccc2ccccc12` [W-5, N-(6-Aminohexyl)-1-naphthalenesulfonamide]: the IC50 in experiment [1] is 20 µM. For the compound `NCCCCCCCCCCNS(=O)(=O)c1cccc2c(Cl)cccc12` [W-7 decyl], in [1], the IC50 came to 29 µM.

Turning to `NCCCCCCNS(=O)(=O)c1ccc2c(Cl)cccc2c1` [W-7 isomer, N-(6-Aminohexyl)-5-chloro-2-naphthalenesulfonamide], in [1], the IC50 is 35 µM. With `NCCCCCCNS(=O)(=O)c1cccc2c(Cl)cccc12` [W-7, N-(6-Aminohexyl)-5-chloro-1-naphthalenesulfonamide], the values for the IC50 in experiment [5], in [6] and in experiment [7] were 5 µM, 65 µM and 15 µM, respectively.

For `[Cl][La]([Cl])[Cl]` [lanthanum chloride], the IC50 in experiment [8] was 4 µM; in [9] it was more than 50 µM.
